The source made the active and inactive calls. The calls are words filed in the database; no cut-off is given here.
How the values were obtained:
[1] = tested on: Mycobacterium tuberculosis; assay: Antibacterial activity against Mycobacterium tuberculosis infected in Hartley guinea pig lung assessed as reduction in bacteria induced progression of inflammation at 30 mg/kg after 4 weeks by histological analysis relative to control; type: functional, organism-based; design: dose 30 mg/kg
[2] = tested on: Mycobacterium tuberculosis; assay: Antibacterial activity against Mycobacterium tuberculosis infected in Hartley guinea pig lung assessed as reduction in development of new secondary lesions at 30 mg/kg after 4 weeks by histological analysis relative to control; type: functional, organism-based; design: dose 30 mg/kg
[3] = tested on: Mycobacterium tuberculosis; assay: Antibacterial activity against Mycobacterium tuberculosis infected in Hartley guinea pig lung assessed as reduction in bacterial load at 30 mg/kg; type: functional, organism-based; design: dose 30 mg/kg
[4] = tested on: Mycobacterium tuberculosis; assay: Antibacterial activity against Mycobacterium tuberculosis infected in Hartley guinea pig spleen assessed as reduction in bacterial load at 30 mg/kg; type: functional, organism-based; design: dose 30 mg/kg
[5] = tested on: Mycobacterium tuberculosis; assay: Antibacterial activity against Mycobacterium tuberculosis infected in Hartley guinea pig lung assessed as reduction in bacteria induced progression of inflammation at 100 mg/kg after 4 weeks by histological analysis relative to control; type: functional, organism-based; design: dose 100 mg/kg
[6] = tested on: Mycobacterium tuberculosis; assay: Antibacterial activity against Mycobacterium tuberculosis infected in Hartley guinea pig spleen assessed as reduction in bacterial load at 100 mg/kg; type: functional, organism-based; design: dose 100 mg/kg
[7] = tested on: Mycobacterium tuberculosis; assay: Antibacterial activity against Mycobacterium tuberculosis infected in Hartley guinea pig lung assessed as reduction in bacterial load at 100 mg/kg; type: functional, organism-based; design: dose 100 mg/kg
[8] = Toxicity in Hartley guinea pig lung assessed as formation of TB lesions by histological analysis; design: species or system Cavia porcellus; settings: in vivo
[9] = tested on: Mycobacterium tuberculosis; assay: Antibacterial activity against Mycobacterium tuberculosis infected in Hartley guinea pig lung assessed as reduction in development of new secondary lesions at 100 mg/kg after 4 weeks by histological analysis relative to control; type: functional, organism-based; design: dose 100 mg/kg

SMILES | Activity [1] | Activity [2] | Activity [3] | Activity [4] | Activity [5] | Activity [6] | Activity [7] | Activity [8] | Activity [9]
NNC(=O)c1ccncc1 | Active | Active | Active | Active | – | – | – | – | –
Cc1ncc([N+](=O)[O-])n1CCO [METRONIDAZOLE] | – | – | – | – | inactive | inactive | inactive | Toxic | inactive
